Measurements published in ChEMBL document CHEMBL4017449, “Inhibition of Malassezia globosa carbonic anhydrase with phenols” (Bioorg Med Chem, 2017).

Tests used:
[1] = Inhibition of Malassezia globosa recombinant beta-carbonic anhydrase preincubated for 15 mins prior to testing measured for 10 to 100 secs by phenol red-based stopped-flow CO2 hydration assay
Carbonic anhydrase 1 = Carbonic anhydrase 1 (Homo sapiens, UniProt P00915); test: Inhibition of human recombinant carbonic anhydrase 1 preincubated for 15 mins prior to testing measured for 10 to 100 secs by phenol red-based stopped-flow CO2 hydration assay
Sequence of Carbonic anhydrase 1 (P00915 whole entry): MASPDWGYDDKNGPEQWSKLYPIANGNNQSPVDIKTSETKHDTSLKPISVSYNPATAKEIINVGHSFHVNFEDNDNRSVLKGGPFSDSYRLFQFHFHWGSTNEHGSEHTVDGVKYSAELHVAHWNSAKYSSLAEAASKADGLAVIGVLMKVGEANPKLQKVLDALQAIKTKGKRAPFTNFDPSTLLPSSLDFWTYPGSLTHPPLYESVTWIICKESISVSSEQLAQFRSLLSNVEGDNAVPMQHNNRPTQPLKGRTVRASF

Carbonic anhydrase 2 = Carbonic anhydrase 2 (Homo sapiens, UniProt P00918); test: Inhibition of human recombinant carbonic anhydrase 2 preincubated for 15 mins prior to testing measured for 10 to 100 secs by phenol red-based stopped-flow CO2 hydration assay

Ki [1]	Ki (Carbonic anhydrase 1)	Ki (Carbonic anhydrase 2)	Structure (SMILES)
3.9 µM			Nc1cccc(O)c1 [3-AMINOPHENOL]
3.3 µM			O=C(O)/C=C/c1ccc(O)cc1 [COUMARIC ACID]
6.1 µM			Oc1cccc(O)c1 [RESORCINOL]
6.5 µM			O=C(O)c1ccc(O)c(O)c1 [PROTOCATECHUIC ACID]
4.9 µM			O=C(O)c1ccc(O)cc1 [PARABEN]
2.5 µM			CC(=O)Nc1ccc(O)cc1 [ACETAMINOPHEN]
8.8 µM			Oc1cc(F)cc(F)c1
4.5 µM			O=C(O)c1cc(O)ccc1O [GENTISIC ACID]
> 100 µM	57.8 µM	57.5 µM	Nc1ccc(O)c(Cl)c1
7.4 µM	> 100 µM	> 100 µM	Oc1ccc(O)c(O)c1
5.9 µM			O=C(O)c1c(O)cccc1O
0.6 µM			O=C(O)/C=C/c1ccc(O)c(O)c1 [CAFFEIC ACID]
7 µM			Oc1ccccc1O [CATECHOL]
44.9 µM			Nc1cc(O)ccc1Cl
6.1 µM			OCc1ccc(O)cc1 [PARAHYDROXYBENZYL ALCOHOL]
6.3 µM			Oc1ccc(O)cc1 [HYDROQUINONE]
36.4 µM	> 100 µM	> 100 µM	Oc1c(F)cc(F)cc1F
29.7 µM			Oc1cc(F)ccc1F

Structure (SMILES)	Ki [1]	Ki (Carbonic anhydrase 1)	Ki (Carbonic anhydrase 2)
N#Cc1ccc(O)cc1 [4-CYANOPHENOL]	0.7 µM		
Oc1ccccc1 [PHENOL]	65 µM		
Nc1ccc(O)cc1 [4-AMINOPHENOL]	32 µM		
O=C(O)c1ccccc1O [SALICYLIC ACID]	6.6 µM		
CC(=O)Nc1nnc(S(N)(=O)=O)s1 [ACETAZOLAMIDE]	74 µM		
